Measurements taken from patent US20100035848A1, “THERAPY FOR DISORDERS OF THE PROXIMAL DIGESTIVE TRACT” (priority 2008, published 2010).

Legend:
[1] = test system: duodenal ulcer; settings: administered to treat heart failure; Gidaiatov et al. (2000); cited from earlier work
[2] = test system: gastric mucosal erosions, dyspeptic symptoms; settings: cited from earlier work
[3] = biological target: T1, ACE2 (Rattus norvegicus, UniProt Q5EGZ1); assay: Acute diclofenac-induced gastric toxicity in rats: ACE2 activity in stomach tissue; type: in vivo
T1 construct: from tissue; host or cells: rat stomach (excluding forestomach) homogenate
T1 sequence (Q5EGZ1 18-805): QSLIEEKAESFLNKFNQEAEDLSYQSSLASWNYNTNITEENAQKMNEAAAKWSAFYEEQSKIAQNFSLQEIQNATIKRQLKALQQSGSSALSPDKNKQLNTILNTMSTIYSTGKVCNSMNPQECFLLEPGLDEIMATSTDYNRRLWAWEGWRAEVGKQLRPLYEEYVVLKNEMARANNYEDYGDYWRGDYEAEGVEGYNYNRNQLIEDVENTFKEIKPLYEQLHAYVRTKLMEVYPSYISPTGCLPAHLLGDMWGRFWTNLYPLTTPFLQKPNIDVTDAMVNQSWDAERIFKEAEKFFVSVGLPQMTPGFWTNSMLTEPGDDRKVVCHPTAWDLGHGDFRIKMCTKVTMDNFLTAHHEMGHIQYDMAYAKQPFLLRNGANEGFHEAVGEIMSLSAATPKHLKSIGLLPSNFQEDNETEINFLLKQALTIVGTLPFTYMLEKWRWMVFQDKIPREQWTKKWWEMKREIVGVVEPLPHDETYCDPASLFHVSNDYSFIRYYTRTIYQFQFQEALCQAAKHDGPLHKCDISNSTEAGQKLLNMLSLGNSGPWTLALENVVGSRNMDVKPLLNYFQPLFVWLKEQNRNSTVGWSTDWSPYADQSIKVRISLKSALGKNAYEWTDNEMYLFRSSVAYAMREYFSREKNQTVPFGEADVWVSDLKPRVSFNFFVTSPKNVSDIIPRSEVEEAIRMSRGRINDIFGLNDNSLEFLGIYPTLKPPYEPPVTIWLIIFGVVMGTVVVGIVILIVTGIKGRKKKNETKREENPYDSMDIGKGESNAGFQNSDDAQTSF
Procedure: (§1) Male Wistar rats were deprived of food but not water for 16 hours prior to oral administration of GL1001 90 mg/kg, incubated for 30 minutes and then given oral diclofenac 50 mg/kg. Each group consisted of 6 rats. As a negative control, one group received vehicle pretreatment, and then received vehicle instead of diclofenac. A positive control group received PGE2 100 μg/kg orally, 30 minutes prior to administration of diclofenac. All treatments were administered by oral gavage.
(§2) Three hours after diclofenac treatment, all animals were sacrificed and stomachs were removed and imaged to determine the severity of gastric damage. Additionally, stomach tissue samples were taken to assess disease activity and pharmacodynamic effects. Gastric damage scores were determined from photographic images (Ma & Wallace (2003) Am. J. Physiol. Gastrointest. Liver Physiol. 279; 341-346). Removed stomachs were opened along the greater curvature, pinned out on a wax block, and photographed along a 25 mm ruler reference with a digital 35 mm camera. The lesion area was then determined using enlarged images and computer software (www.scioncorp.co/pages/scion_image_windows.htm) that allows superimposed drawing of the perimeter of a wound and calculation of the area based on the ruler reference. Stomach samples (excluding forestomach) were used for measurements of PGE2 concentration, MPO activity and ACE2 activity. […] Concentration of PGE2 from stomach tissue samples was performed as described by Souza et al. (2003), supra, and quantification was obtained by LC-MS. […] Last, the extent of inhibition of ACE2 activity was determined to establish whether GL1001 was effective in inhibiting its ACE2 target in stomach tissues. The ACE2 activity assay is similar to the method of Vickers et al. (2002) J. Biol. Chem. 277:14838-14843, wherein purified recombinant ACE2 (100 pM) and a quenched fluorescent substrate (100-150 μM APK (7-methoxycoumarin-4-yl)acetyl-Ala-Pro-Lys (2,4-dinitrophenyl)) are used in end-point fluorescence reactions (excitation 320 nm, emission 405 nm). […]
(§3) Data are expressed as means with standard errors. […]

[4] = test system: diclofenac-induced gastric damage; assay: Acute diclofenac-induced gastric toxicity in rats: gastric damage score; type: in vivo, rat; settings: for Gastric damage score: Group D: PGE2 100 μg/kg oral 30 min before diclofenac 50 mg/kg oral, 3 h, Group B 17.80 ± 5.08
Procedure: as §1
Three hours after diclofenac treatment, all animals were sacrificed and stomachs were removed and imaged to determine the severity of gastric damage. Additionally, stomach tissue samples were taken to assess disease activity and pharmacodynamic effects. Gastric damage scores were determined from photographic images (Ma & Wallace (2003) Am. J. Physiol. Gastrointest. Liver Physiol. 279; 341-346). Removed stomachs were opened along the greater curvature, pinned out on a wax block, and photographed along a 25 mm ruler reference with a digital 35 mm camera. The lesion area was then determined using enlarged images and computer software (www.scioncorp.co/pages/scion_image_windows.htm) that allows superimposed drawing of the perimeter of a wound and calculation of the area based on the ruler reference. Stomach samples (excluding forestomach) were used for measurements of PGE2 concentration, MPO activity and ACE2 activity. PRE2 determinations are used in this study as a hiomarker of diclofenac effect since its mechanism of action involves inhibition of cyclooxygenase (COX-2 and COX-1) enzymes which in turn results in inhibition of PGE2 synthesis. Concentration of PGE2 from stomach tissue samples was performed as described by Souza et al. (2003), supra, and quantification was obtained by LC-MS. MTO, an enzyme found in abundance in granulocytes, is used as a biochemical marker of tissue inflammation. When tissues undergo inflammatory processes, granulocytes are recruited to the site of inflammation and infiltrate the affected tissue giving rise to increase MPO activity (Souza et al. (2003), supra). Last, the extent of inhibition of ACE2 activity was determined to establish whether GL1001 was effective in inhibiting its ACE2 target in stomach tissues. The ACE2 activity assay is similar to the method of Vickers et al. (2002) J. Biol. Chem. 277:14838-14843, wherein purified recombinant ACE2 (100 pM) and a quenched fluorescent substrate (100-150 μM APK (7-methoxycoumarin-4-yl)acetyl-Ala-Pro-Lys (2,4-dinitrophenyl)) are used in end-point fluorescence reactions (excitation 320 nm, emission 405 nm). For stomach ACE2 measurements, tissues were homogenized in the presence of a general protease inhibitor (PMSF) and specific ACE inhibitors. […]
as §3

[5] = test system: gastric PGE2; assay: Acute diclofenac-induced gastric toxicity in rats: gastric PGE2 concentration; type: in vivo, rat
Procedure: as §1, §2, §3

[6] = test system: myeloperoxidase; assay: Acute indomethacin-induced gastric toxicity in rats: gastric myeloperoxidase activity; type: in vivo, rat; settings: Group J: PGE2 100 μg/kg p.o., indomethacin 20 mg/kg p.o.; vehicle Group I 29.5 ± 2.8
Procedure: A study was conducted to determine whether GL1001 would inhibit acute NSAID (indomethacin)-induced gastric toxicity in a rat model (Wallace et al. (1998) Gastroenterol. 115:101-109). Several modes of treatment with GL1001 or vehicle were employed, which included administration via drinking water, oral administration and subcutaneous administration as shown in Table 4. Irrespective of the route of drug or vehicle administration, male Wistar rats were deprived of food for 16 h prior to oral administration of 20 mg/kg indomethacin (Sigma) or vehicle (5% w/v sodium bicarbonate; 1 ml/kg). Three hours later the rats were sacrificed and the severity of gastric damage was blindly scored. This involved measurement of the lengths (in mm) of all hemorrhagic erosions and summing these to give a “gastric damage score” for each stomach. Samples of the stomach were taken for measurement of prostaglandin E2 (PGE2) synthesis as described by Wallace et al. (1998), supra, and myeloperoxidase activity as described by Souza et al. (2003) Am. J. Physiol. 285:[…]-61. Myeloperoxidase is an enzyme found in all cells of mycloid origin, but particularly enriched within neutrophils. […] Based on average water consumption by rats, this was aimed at providing a daily dose of GL1100 of 1200 mg/kg (water consumption was monitored for several days prior to initiation of the study). […] Data are expressed as mean±SEM. […]

[7] = test system: gastric PGE2 synthesis; assay: Acute indomethacin-induced gastric toxicity in rats: gastric PGE2 synthesis; type: in vivo, rat; settings: indomethacin 20 mg/kg p.o.
Procedure: A study was conducted to determine whether GL1001 would inhibit acute NSAID (indomethacin)-induced gastric toxicity in a rat model (Wallace et al. (1998) Gastroenterol. 115:101-109). Several modes of treatment with GL1001 or vehicle were employed, which included administration via drinking water, oral administration and subcutaneous administration as shown in Table 4. Irrespective of the route of drug or vehicle administration, male Wistar rats were deprived of food for 16 h prior to oral administration of 20 mg/kg indomethacin (Sigma) or vehicle (5% w/v sodium bicarbonate; 1 ml/kg). Three hours later the rats were sacrificed and the severity of gastric damage was blindly scored. This involved measurement of the lengths (in mm) of all hemorrhagic erosions and summing these to give a “gastric damage score” for each stomach. Samples of the stomach were taken for measurement of prostaglandin E2 (PGE2) synthesis as described by Wallace et al. (1998), supra, and myeloperoxidase activity as described by Souza et al. (2003) Am. J. Physiol. 285:[…]-61. Myeloperoxidase is an enzyme found in all cells of mycloid origin, but particularly enriched within neutrophils. It is therefore used as a biochemical marker of granulocyte infiltration into tissue. Each group consisted of 6 rats. As a negative control, one group received vehicle pretreatments (in the drinking water and by oral gavage) and then received vehicle instead of indomethacin. […] [table] In the experiments where GL1001 (or vehicle) was added to drinking water, the rats were provided with the modified drinking water for 2 days prior to administration of indomethacin (or vehicle). This included the period when the rats were deprived of food. GL1001 was prepared in 0.1M citrate buffer before being added to the drinking water. Based on average water consumption by rats, this was aimed at providing a daily dose of GL1100 of 1200 mg/kg (water consumption was monitored for several days prior to initiation of the study). Oral or subcutaneous administration of GL1001 (or vehicle) was performed 30 minutes prior to administration of indomethacin. Data are expressed as mean±SEM. When two groups of data were compared, a Student's t-test was used. When more than two groups of data were compared, a one-way analysis of variance followed by the Newman-Keuls test was used. An associated probability of less than 5% was considered statistically significant.

SMILES: CCOC(=O)[C@H](CCc1ccccc1)N[C@@H](C)C(=O)N1CCC[C@H]1C(=O)O [enalapril]
- healing of duodenal ulcer, patients treated [1]: 87%
- percentage of patients with dyspeptic symptoms ([2]; hypertensive patients, decreased from 78% upon treatment): 40%
- number of patients having gastric mucosal erosions ([2]; of 30 hypertensive patients, decreased from 11 upon treatment): 4

SMILES: O=C(O)Cc1ccccc1Nc1c(Cl)cccc1Cl [diclofenac]
- Activity of ACE2 in stomach tissue ([3]; diclofenac-treated Group B vs Group A, p=0.052): trend towards up-regulation
- mean gastric damage score ([4]; diclofenac 50 mg/kg oral after vehicle pretreatment, 3 h (Group B)): 17.8
- PGE2 levels in stomach tissue ([5]; all treatment groups that received diclofenac 50 mg/kg oral, vehicle Group A 43.22 pg/mg): no detectable

SMILES: CCCCC[C@H](O)/C=C/[C@H]1[C@H](O)CC(=O)[C@@H]1C/C=C\CCCC(=O)O [PGE2, prostaglandin E2]
- Gastric ACE2 activity ([3]; Group D: PGE2 100 μg/kg oral before diclofenac 50 mg/kg, Group B 880 ± 39): 688 ± 30 pmol/mg
- Gastric damage score [4]: 0
- Gastric damage score ([4]; listed as PCGE2): total absence of gastric lesions
- Gastric PGE2 concentration ([5]; Group D: PGE2 100 μg/kg oral before diclofenac 50 mg/kg): 0 pg/mg
- Gastric MPO activity [6]: 22.8 ± 2.2 U/mg
- Gastric PGE2 synthesis ([7]; Group J: PGE2 100 μg/kg p.o., vehicle Group I 6.08 ± 1.00): 6.10 ± 1.00 ng/mg

SMILES: COc1ccc2c(c1)c(CC(=O)O)c(C)n2C(=O)c1ccc(Cl)cc1 [indomethacin, reference compound]
- reduction of gastric PGE2 synthesis ([7]; irrespective of pretreatment, vehicle only Group E 82 ng/mg): > 92%
